Experimental data from PMC5378303 (Nature, 2017).

Molecular target: T1, phi3T AimR receptor (Bacillus phage phi3T, UniProt P0DOE3)
T1 sequence (P0DOE3 1-378): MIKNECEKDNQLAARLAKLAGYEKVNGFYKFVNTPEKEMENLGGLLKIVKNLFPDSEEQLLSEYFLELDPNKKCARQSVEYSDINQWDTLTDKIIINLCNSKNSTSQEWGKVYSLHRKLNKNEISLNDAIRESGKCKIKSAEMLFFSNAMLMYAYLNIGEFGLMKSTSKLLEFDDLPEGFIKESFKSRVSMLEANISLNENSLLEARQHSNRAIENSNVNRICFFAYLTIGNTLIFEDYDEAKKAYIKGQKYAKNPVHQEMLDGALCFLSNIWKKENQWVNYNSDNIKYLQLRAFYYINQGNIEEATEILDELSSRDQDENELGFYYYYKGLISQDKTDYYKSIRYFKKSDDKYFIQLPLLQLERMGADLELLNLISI
Assay: Microscale thermophoresis
Format: binding
Conditions: label-free MST, 200 nM AimR, peptide 9-4000 nM, pH 8.0, 23 °C, 3 runs

GMPRGA
binding to phi3T AimR (in words): did not show specific binding to the phi3T AimR receptor
